Reference: patent publication US7939548B2, “Certain chemical entities, compositions, and methods” (Cytokinetics, Inc., priority 2006, dated 2011)

Target: T1, chicken gizzard smooth muscle myosin subfragment-1 chemically crosslinked to either cardiac or skeletal actin (Gallus gallus, UniProt P10587)
T1 construct: chicken gizzard smooth muscle myosin subfragment-1
Assay: Smooth muscle myosin ATPase dose response assay (pyruvate kinase/horseradish peroxidase/pyruvate oxidase-coupled)
Format: biochemical
Settings: ATPase activity of crosslinked smooth muscle actomyosin (subfragment-1); amplex red fluorescence; 4 parameter fit; read-out: IC50 Arithmetic Mean
Protocol: Screening assays were performed using a pyruvate kinase and lactate dehydrogenase-coupled ATPase assay containing the following reagents: Potassium PIPES (50 mM), MgCl2 (3 mM), KCl (100 mM), ATP (0.15 mM), DTT (1 mM), BSA (0.1 mg/ml), NADH (0.5 mM), PEP (1.5 mM), pyruvate kinase (4 U/ml), lactate dehydrogenase (8 U/ml), and antifoam (50 ppm) (concentrations expressed are final assay concentrations). The pH was adjusted to 6.80 at 22 °C by addition of potassium hydroxide. Lead optimization assays were performed with a more sensitive pyruvate kinase/horseradish peroxidase/pyruvate oxidase-coupled ATPase assay containing the following reagents: Potassium PIPES (12 mM), MgCl2 (2 mM), KCl (100 mM), ATP (0.15 mM), BSA (0.05 mg/ml), potassium phosphate (2 mM), amplex red (0.1 mM), PEP (0.1 mM), pyruvate kinase (4 U/ml), horseradish peroxidase (0.5 U/ml), pyruvate oxidase (0.5 U/ml), and antifoam (50 ppm) (concentrations expressed are final assay concentrations). The pH was adjusted to 7.00 at 22 °C by addition of potassium hydroxide.
The protein components specific to this assay are chicken gizzard smooth muscle myosin subfragment-1 that has been chemically crosslinked to either cardiac or skeletal actin using an excess of 1-Ethyl-3-[3-dimethylaminopropyl]carbodiimide hydrochloride and N-hydroxysuccinimide. The exact concentration of the crosslinked smooth muscle myosin in the assay is determined empirically, by titration to achieve a desired rate of ATP hydrolysis. The concentration varies between protein preparations due to variations in the fraction of active molecules in each preparation.
Compound dose response assays are performed by first preparing a dilution series of test compound, each with an assay mixture containing potassium PIPES, MgCl2, KCl, ATP, BSA, potassium phosphate, amplex red, PEP, crosslinked smooth muscle actomyosin (subfragment-1), antifoam, and water. The assay is started by adding an equal volume of solution containing potassium Pipes, MgCl2, KCl, BSA, potassium phosphate, pyruvate kinase, horseradish peroxidase, pyruvate oxidase, antifoam, and water. ATP hydrolysis is monitored by measuring the fluorescence of amplex red (excitation at 480 nm, emission at 615 nm). The resulting dose response curve is fit by the 4 parameter equation y=Bottom+((Top-Bottom)/(1+((IC50/X)^Hill))). The IC50 is defined as the concentration at which ATPase activity is midway between the top and bottom of the dose response curve.

Row | IC50 | Structure (SMILES)
1 | 15 µM | CNC(=O)CNC(=O)c1cc(-c2ccccc2)cnc1NCCc1cccc(F)c1 [2-[(2-{[2-(3-fluorophenyl)ethyl]amino}-5-phenyl(3-pyridyl))carbonylamino]-N-methylacetamide]
2 | 18 µM | CNC(=O)CNC(=O)c1cc(-c2ccccc2C#N)cnc1NCCc1cccc(F)c1 [2-[(5-(2-cyanophenyl)-2-{[2-(3-fluorophenyl)ethyl]amino}(3-pyridyl))carbonylamino]-N-methylacetamide]
3 | 70.3 µM | CN(C)C(=O)CCCNc1ccc(C(=O)NCc2cccnc2)c(NCCc2cccc(F)c2)n1 [4-[(6-{[2-(3-fluorophenyl)ethyl]amino}-5-[N-(3-pyridylmethyl)carbamoyl](2-pyridyl))amino]-N,N-dimethylbutanamide]
4 | 55.1 µM | CN(C)C(=O)CCCCNc1ccc(C(=O)NCc2cccnc2)c(NCCc2cccc(F)c2)n1 [5-[(6-{[2-(3-fluorophenyl)ethyl]amino}-5-[N-(3-pyridylmethyl)carbamoyl](2-pyridyl))amino]-N,N-dimethylpentanamide]
5 | 49.2 µM | O=C(CCCCNc1ccc(C(=O)NCc2cccnc2)c(NCCc2cccc(F)c2)n1)NCc1cccnc1 [5-[(6-{[2-(3-fluorophenyl)ethyl]amino}-5-[N-(3-pyridylmethyl)carbamoyl](2-pyridyl))amino]-N-(3-pyridylmethyl)pentanamide]
6 | 38 µM | CNC(=O)CCCCNc1ccc(C(=O)NCc2cccnc2)c(NCCc2cccc(F)c2)n1 [5-[(6-{[2-(3-fluorophenyl)ethyl]amino}-5-[N-(3-pyridylmethyl)carbamoyl](2-pyridyl))amino]-N-methylpentanamide]
7 | 11.2 µM | O=C(O)c1cc(Br)cnc1NCCc1cccc(F)c1 [5-bromo-2-{[2-(3-fluorophenyl)ethyl]amino}pyridine-3-carboxylic acid]
8 | 14 µM | NC(=O)c1ccc(C(=O)NCc2cccnc2)c(NCCc2cccc(F)c2)n1 [6-{[2-(3-fluorophenyl)ethyl]amino}-5-[N-(3-pyridylmethyl)carbamoyl]pyridine-2-carboxamide]
9 | 6.62 µM | N=C(N)c1ccc(C(=O)NCc2cccnc2)c(NCCc2cccc(F)c2)n1 [6-{[2-(3-fluorophenyl)ethyl]amino}-5-[N-(3-pyridylmethyl)carbamoyl]pyridine-2-carboxamidine]
10 | 26.8 µM | O=C(NCc1cccnc1)c1cccnc1NCCc1cccc(F)c1 [(2-{[2-(3-fluorophenyl)ethyl]amino}(3-pyridyl))-N-(3-pyridylmethyl)carboxamide]
11 | 0.347 µM | CC(C)=Cc1ccc(C(=O)NCc2cccnc2)c(NCCc2cccc(F)c2)n1 [(2-{[2-(3-fluorophenyl)ethyl]amino}-6-(2-methylprop-1-enyl)(3-pyridyl))-N-(3-pyridylmethyl)carboxamide]
12 | 8.18 µM | COCCCc1ccc(C(=O)NCc2cccnc2)c(NCCc2cccc(F)c2)n1 [(2-{[2-(3-fluorophenyl)ethyl]amino}-6-(3-methoxypropyl)(3-pyridyl))-N-(3-pyridylmethyl)carboxamide]
13 | 44.1 µM | CNC(=O)c1ccc(C(=O)NCc2cccnc2)c(NCCc2cccc(F)c2)n1 [(2-{[2-(3-fluorophenyl)ethyl]amino}-6-(N-methylcarbamoyl)(3-pyridyl))-N-(3-pyridylmethyl)carboxamide]
14 | 10.9 µM | CNc1ccc(C(=O)NCc2cccnc2)c(NCCc2cccc(F)c2)n1 [(2-{[2-(3-fluorophenyl)ethyl]amino}-6-(methylamino)(3-pyridyl))-N-(3-pyridylmethyl)carboxamide]
15 | 13.1 µM | O=C(NCc1cccnc1)c1ccc(NCCO)nc1NCCc1cccc(F)c1 [(2-{[2-(3-fluorophenyl)ethyl]amino}-6-[(2-hydroxyethyl)amino](3-pyridyl))-N-(3-pyridylmethyl)carboxamide]
16 | 45.4 µM | CN(CCO)c1ccc(C(=O)NCc2cccnc2)c(NCCc2cccc(F)c2)n1 [(2-{[2-(3-fluorophenyl)ethyl]amino}-6-[(2-hydroxyethyl)methylamino](3-pyridyl))-N-(3-pyridylmethyl)carboxamide]
17 | 10.5 µM | CC(O)CN(C)c1ccc(C(=O)NCc2cccnc2)c(NCCc2cccc(F)c2)n1 (centres unmarked) [(2-{[2-(3-fluorophenyl)ethyl]amino}-6-[(2-hydroxypropyl)methylamino](3-pyridyl))-N-(3-pyridylmethyl)carboxamide]
18 | 7.62 µM | COCCNc1ccc(C(=O)NCc2cccnc2)c(NCCc2cccc(F)c2)n1 [(2-{[2-(3-fluorophenyl)ethyl]amino}-6-[(2-methoxyethyl)amino](3-pyridyl))-N-(3-pyridylmethyl)carboxamide]
19 | 10.8 µM | O=C(NCc1cccnc1)c1ccc(NCc2ccccn2)nc1NCCc1cccc(F)c1 [(2-{[2-(3-fluorophenyl)ethyl]amino}-6-[(2-pyridylmethyl)amino](3-pyridyl))-N-(3-pyridylmethyl)carboxamide]
20 | 8.47 µM | O=C(NCc1cccnc1)c1ccc(NCCCO)nc1NCCc1cccc(F)c1 [(2-{[2-(3-fluorophenyl)ethyl]amino}-6-[(3-hydroxypropyl)amino](3-pyridyl))-N-(3-pyridylmethyl)carboxamide]
21 | 11 µM | COCCCNc1ccc(C(=O)NCc2cccnc2)c(NCCc2cccc(F)c2)n1 [(2-{[2-(3-fluorophenyl)ethyl]amino}-6-[(3-methoxypropyl)amino](3-pyridyl))-N-(3-pyridylmethyl)carboxamide]
22 | 5.61 µM | O=C(NCc1cccnc1)c1ccc(NCc2cccnc2)nc1NCCc1cccc(F)c1 [(2-{[2-(3-fluorophenyl)ethyl]amino}-6-[(3-pyridylmethyl)amino](3-pyridyl))-N-(3-pyridylmethyl)carboxamide]
23 | 34 µM | O=C(NCc1cccnc1)c1ccc(NCc2ccncc2)nc1NCCc1cccc(F)c1 [(2-{[2-(3-fluorophenyl)ethyl]amino}-6-[(4-pyridylmethyl)amino](3-pyridyl))-N-(3-pyridylmethyl)carboxamide]
24 | 11.8 µM | O=C(NCc1ccccn1)c1cc(Br)cnc1NCCc1cccc(F)c1 [(5-bromo-2-{[2-(3-fluorophenyl)ethyl]amino}(3-pyridyl))-N-(2-pyridylmethyl)carboxamide]
25 | 17.7 µM | Cc1cccc(CNC(=O)c2cc(Br)cnc2NCCc2cccc(F)c2)n1 [(5-bromo-2-{[2-(3-fluorophenyl)ethyl]amino}(3-pyridyl))-N-[(6-methyl(2-pyridyl))methyl]carboxamide]
26 | 17.3 µM | O=C(NCc1ccccn1)c1cc(Br)c(Cl)nc1NCCc1cccc(F)c1 [(5-bromo-6-chloro-2-{[2-(3-fluorophenyl)ethyl]amino}(3-pyridyl))-N-(2-pyridylmethyl)carboxamide]
27 | 12.7 µM | N#Cc1cnc(NCCc2cccc(F)c2)c(C(=O)NCc2ccccn2)c1 [(5-cyano-2-{[2-(3-fluorophenyl)ethyl]amino}(3-pyridyl))-N-(2-pyridylmethyl)carboxamide]
28 | 2.77 µM | CC(C)=C(C)c1ccc(C(=O)NCc2cccnc2)c(NCCc2cccc(F)c2)n1 [(6-(1,2-dimethylprop-1-enyl)-2-{[2-(3-fluorophenyl)ethyl]amino}(3-pyridyl))-N-(3-pyridylmethyl)carboxamide]
29 | 0.702 µM | C=C(OCC)c1ccc(C(=O)NCc2cccnc2)c(NCCc2cccc(F)c2)n1 [(6-(1-ethoxyvinyl)-2-{[2-(3-fluorophenyl)ethyl]amino}(3-pyridyl))-N-(3-pyridylmethyl)carboxamide]
